Molecular target: T1, recombinant mouse TRPC3c channels (Mus musculus, UniProt Q9QZC1, DEL811-838)
T1 construct: expressed in transfected cells; host or cells: HEK293 cells, stably transfected (pIRES-DsRed2 vector)
T1 sequence (Q9QZC1 with tags, fused parts or gaps DEL811-838): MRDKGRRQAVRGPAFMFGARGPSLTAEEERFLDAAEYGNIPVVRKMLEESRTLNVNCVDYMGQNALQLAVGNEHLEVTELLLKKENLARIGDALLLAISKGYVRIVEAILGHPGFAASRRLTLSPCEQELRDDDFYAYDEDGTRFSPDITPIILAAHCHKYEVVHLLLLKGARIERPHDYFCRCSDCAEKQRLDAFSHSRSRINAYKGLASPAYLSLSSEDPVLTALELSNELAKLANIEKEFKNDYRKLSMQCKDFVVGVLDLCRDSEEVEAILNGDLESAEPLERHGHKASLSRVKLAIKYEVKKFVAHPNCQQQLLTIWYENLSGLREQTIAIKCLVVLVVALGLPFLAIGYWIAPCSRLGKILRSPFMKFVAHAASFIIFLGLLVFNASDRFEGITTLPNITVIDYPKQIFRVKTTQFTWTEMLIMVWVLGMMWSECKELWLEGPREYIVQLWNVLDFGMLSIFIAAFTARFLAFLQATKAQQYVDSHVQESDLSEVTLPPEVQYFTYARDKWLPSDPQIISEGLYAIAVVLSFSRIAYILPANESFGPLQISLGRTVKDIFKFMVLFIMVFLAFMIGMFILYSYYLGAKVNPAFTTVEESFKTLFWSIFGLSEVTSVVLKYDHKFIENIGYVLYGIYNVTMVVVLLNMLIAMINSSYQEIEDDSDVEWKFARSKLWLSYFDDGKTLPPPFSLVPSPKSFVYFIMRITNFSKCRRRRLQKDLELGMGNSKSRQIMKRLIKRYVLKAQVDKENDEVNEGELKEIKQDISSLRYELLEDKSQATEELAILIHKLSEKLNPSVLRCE
Experiment: Whole-cell patch clamp of CCh-activated current, HEK293 cells expressing TRPC3c
Assay type: cell-based
Conditions: TRPC3c+CCh (100 μM)+genistein 200 μM pre-incubation; Vh=−50 mV; n=7; CCh alone −809.4±36.9 pA
Method: For whole cell patch clamp recordings, HEK293 cells stably expressing recombinant TRPC3 ion channels were grown to 85-95% confluence on a coverslip coated with poly-D-lysine and collagen (both from Sigma-Aldrich, U.S.A.). Recording pipettes were made from borosilicate glass (GC120TF-10, Harvard Apparatus, U.K.). The pipette resistance was at 3-6 MΩ (PC-10, Narishige, Japan). The internal solution had the composition: 130 mM CsCl, 2 mM MgCl2, 10 mM EGTA, 0.3 mM ATP, 0.03 mM GTP, pH at 7.3 adjusted with CsOH. Cells on the coverslip were placed in a microchamber on an inverted microscope (Leica DMIL, Germany) and superfused with HEPES-buffered physiological salt solution (HPSS) containing 120 mM NaCl, 5.4 mM KCl, 2 mM CaCl2, 1.13 mM MgCl2, 10 mM glucose, 20 mM HEPES (pH 7.4) at room temperature.
Whole cell patch clamp recordings were made following a gigaseal, using an Axopatch 200 patch clamp amplifier (Molecular Devices, U.S.A.) controlled by software (pClamp 10.2, Molecular Devices, U.S.A.). Cell capacitance was cancelled and series resistance was compensated by ˜90%. […] Carbachol (used to activate TRPC3 channels via the endogenously expressed M3 AChR) was purchased from Sigma-Aldrich (U.S.A.). DHPG (—(S)-2-amino-2-(3,5-dihydroxyphenyl)acetic acid), a group I mGluR agonist (Schoepp et al. 1994), was purchased from Tocris Bioscience (U.K.). […]

mean peak CCh-activated whole-cell inward current: −35.4±8.1 pA
SMILES: O=c1c(-c2ccc(O)cc2)coc2cc(O)cc(O)c12 [genistein, 4′, 5,7-trihydroxyisoflavone]

— patent publication US20170202932A1, “METHODS FOR INHIBITING NEURON APOPTOSIS AND NECROSIS” (NEWSOUTH INNOVATIONS PTY LIMITED, priority 2012, published 2017)
